Patent US20050192356A1, “Synergistic anti-inflammatory pharmaceutical compositions and methods of use” (priority 2004, published 2005)
Converted amounts (≈) assume the structure as drawn. Like-named read-outs stand apart in the source and are kept apart here.

System: PGE2 synthesis in AGS cells
Experiment: PGE2 synthesis in the AGS human gastric mucosal cell model (A23187)
Format: cell-based
Procedure: Exponentially growing cells were seeded into 6-well plates and grown to confluence. A 20 μL aliquot of the supernatant media was sampled for determination of PGE2 content. Cells were then washed in PBS, scraped and lysed for immunoblotting.

[1] = AGS cells, historical control values, read-out: AGS IC50 for PGE2 synthesis, historical control

For `Cc1ccc(-c2cc(C(F)(F)F)nn2-c2ccc(S(N)(=O)=O)cc2)cc1` [Celcoxib], the IC50 (AGS, read-out: AGS IC50 for PGE2 synthesis, historical control) was 0.024 µg/mL (≈ 0.0629 µM).

`CC(C)Cc1ccc(C(C)C(=O)O)cc1` (centres unmarked) [Ibuprofen] was tested, and the IC50 [1] was 0.57 µg/mL (≈ 2.76 µM).

With `CC(=O)Oc1ccccc1C(=O)O` [Aspirin] the IC50 [1] was 0.52 µg/mL (≈ 2.89 µM) and the IC50 (AGS cells, test material 60 minutes prior to A23187, media removed 30 minutes later, average of three independent assays, read-out: AGS IC50 for PGE2 synthesis) was 1.2 µg/mL (≈ 6.66 µM).

Compound `CS(=O)(=O)c1ccc(C2=C(c3ccccc3)C(=O)OC2)cc1` [Rofecoxib] has an IC50 [1] of 1.8 µg/mL (≈ 5.73 µM).
